Ends that are not written are not given here.
Legend:
Type in all cases: cell-based, humains
substance P = experiment: Substance P release by sensory neurons derived from human pluripotent stem cells, stimulated with veratridine (ELISA)
Source text: Le but de cette étude est d'évaluer les propriétés modulatrices d'un extrait de Cistus monspeliensis dans l'inflammation neurogène cutanée.
Pour se faire, les inventeurs ont développé une approche expérimentale in vitro. Un modèle original de neurones sensoriels humains a été développé après une reprogrammation cellulaire de cellules souches pluripotentes humaines. Ce modèle permet d'étudier les propriétés inhibitrices de la libération de la substance P par les composés à tester, étudié après la stimulation. Ce neuropeptide, la substance P, étant le principal neuromédiateur impliqué dans les voies de la sensibilisation dans l'inflammation neurogène, la douleur et le prurit.
L'étape initiale est la reprogrammation de cellules souches pluripotentes humaines par l'utilisation successive de différents cocktails de facteurs de croissance.
Les caractérisations phénotypiques et morphologiques ont permis de vérifier le pattern des neurones sensoriels avec notamment l'expression des récepteurs spécifiques tels que TrKA, 5HT-2, P2RX3 ou des canaux tels que TRPV1, Nav1.7, Nav1.8, TRPM8 avec une colocalisation avec des marqueurs neuronaux (Tuj1, Brn3A). Ces caractérisations permettent d'établir une durée de reprogrammation pour atteindre un pattern optimal qui est entre J40 et J47 après le début des traitements avec le cocktail des facteurs de croissance.
L'essai est réalisé sur le modèle de neurones sensoriels en culture dans un mélange de milieu (RPMI/N2/B27/Glutamax) en absence (conditions contrôle) ou en présence (groupes traités) des produits à tester. Ces deux conditions sont testées en présence de Vératridine ou en son absence. […] Les niveaux du neuropeptide qu'est la substance P sont quantifiés dix minutes après l'ajout de Veratridine. […]
La substance P libérée est mesurée dans les milieux d'incubation du groupe non traité (contrôle) et des groupes traités après ou non la stimulation de Vératridine. Elle est quantifiée par ELISA selon les instructions du fournisseur. […]

IL-22 = IL-22 release by isolated, amplified Th17 lymphocytes stimulated with anti-CD3/anti-CD28 beads (ELISA)
Source text: (§1) Le but de cette étude est d'évaluer l'activité potentielle d'un extrait de Cistus monspeliensis selon l'invention pour moduler la production de cytokines impliquées dans le psoriasis et la dermatite atopique. Pour se faire, des lymphocytes Th17 isolés et amplifiés à partir du sang circulant de donneurs sont utilisés comme modèle in vitro d'immunopathogénèse du psoriasis. […]
(§2) Les lymphocytes T sont triés à partir de cellules sanguines récupérées de poches de sang fournies par l'Etablissement Français du sang, pour obtenir le phénotype suivant : CD4+ CD45RA- CXCR3- CCR6+. Le nombre de lymphocytes Th17 ainsi obtenu est augmenté par une mise en culture de ces cellules en présence d'un mélange de cytokines (IL-2, anti-TNFα et anti-INFγ) pendant deux semaines.
(§3) Le test est réalisé sur des lymphocytes Th17 humains isolés et amplifiés en absence (conditions contrôle) ou en présence (traité) des composés à tester et sont stimulés ou non par les facteurs de stimulation anti-CD3/anti-CD28.
(§4) Les teneurs des cytokines pro-inflammatoires de Th17 (IL-17 et IL-22) sont quantifiées 24h après la stimulation.
(§5) Les lymphocytes sont traités avec les composés à tester 30 minutes avant la stimulation et pendant 24 heures.
(§6) La Nicardipine, bloqueur des canaux calciques non-sélectifs a été testée (10 µg/ml), solubilisée également dans le DMSO, est utilisée comme contrôle positif. […]

IL-17 = IL-17 release by isolated, amplified Th17 lymphocytes stimulated with anti-CD3/anti-CD28 beads (ELISA)
Source text: as §1, §2, §3, §4, §5, §6

PAR-2 = biological target: T1, PAR-2 (Homo sapiens, UniProt P55085); experiment: Aequorin test, agonist activity on recombinant PAR-2; settings: reference agonist for PAR-2; read-out: CE50 (the source's name)
T1 construct: expressed in transfected cells; host or cells: CHO-K1 mt aequorin (parental line named; inferred to be the host of the recombinant cells)
T1 sequence (P55085 26-397): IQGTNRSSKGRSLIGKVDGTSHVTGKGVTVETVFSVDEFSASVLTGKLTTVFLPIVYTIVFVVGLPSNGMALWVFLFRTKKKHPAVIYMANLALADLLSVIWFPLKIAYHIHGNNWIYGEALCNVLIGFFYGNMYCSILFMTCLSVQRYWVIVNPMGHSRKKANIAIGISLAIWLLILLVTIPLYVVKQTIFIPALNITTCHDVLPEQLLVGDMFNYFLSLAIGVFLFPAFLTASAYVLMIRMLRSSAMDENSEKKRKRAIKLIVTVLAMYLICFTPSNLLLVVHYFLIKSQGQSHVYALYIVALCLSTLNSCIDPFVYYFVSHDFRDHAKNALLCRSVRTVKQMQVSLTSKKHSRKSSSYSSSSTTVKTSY
Source text: Les inventeurs ont évalué les effets d'un extrait de Cistus monspeliensis sur deux cibles étroitement reliées au prurit, PAR-2 et MRGPRX2.
Les PAR-2 sont des récepteurs couplés aux protéines G. PAR-2 module les réponses inflammatoires, joue un rôle dans l'obésité, le métabolisme et les cancers. PAR-2 agit comme un senseur pour des enzymes protéolytiques générées pendant l'infection. PAR-2 serait retrouvé dans les kératinocytes épidermiques au niveau de la couche stratum granulosum. Des PAR-2 fonctionnels sont également exprimés dans plusieurs types de cellules immunitaires, telles que les éosinophiles, les neutrophiles, les monocytes, les macrophages, les cellules dendritiques, les mastocytes et les cellules T. Le PAR-2 est activé par clivage protéolytique par la tryptase qui est la protéase principale des cellules mastocytaires et la kallikréine qui est impliquée dans des processus inflammatoires et d'homéostasie épidermique. De plus, le clivage protéolytique de PAR-2 induit une signalisation calcique s'il est exprimé dans les neurones participant à la voie afférente. L'activation de MRGPRX2 ([…] G-Protein coupled Receptor) entraine une dégranulation des cellules mastocytaires avec par la suite des réactions pseudo-allergiques. […]

[1] = 10µg/ml, Th17 stimulated anti-CD3/anti-CD28, 24h

CCN(CC)CC(=O)Nc1c(C)cccc1C [Lidocaïne, lidocaïne]
substance P, Données brutes Moyenne (substance P; 100µM, under Vératridine 3µM stimulation): 34,76 pg/ml | libération de substance P (result in words) (substance P; 100µM, under Vératridine stimulation): réduit significativement la libération de substance P

COC(=O)C1=C(C)NC(C)=C(C(=O)OCCN(C)Cc2ccccc2)C1c1cccc([N+](=O)[O-])c1 (centres unmarked) [Nicardipine]
IL-22 (moyenne) (IL-22; [1]): 440 pg/mL | inhibition at 10 µg/mL (IL-22; Lymphocyte): 37% | IL-17 (moyenne) (IL-17; [1]): 721 pg/mL | inhibition at 10 µg/mL (IL-17; Lymphocyte): 43%

COc1ccc(C(=O)O[C@H]2CC[C@@]3(C)[C@@H]4CC[C@H]5[C@]6(O)C[C@H](O)[C@@]7(O)[C@@H](CN8C[C@@H](C)CC[C@H]8[C@@]7(C)O)[C@]6(O)C[C@@]53O[C@]24O)cc1OC [Vératridine]
substance P, Données brutes Moyenne (substance P; Vératridine 3µM alone (stimulus), 10 minutes): 96,26 pg/ml

SLIGRL-NH2 [SLIGRL-NH2]
EC50 (PAR-2): 0.524 µM

— patent EP4194000A1, “CISTUS MONSPELIENSIS EXTRACT AND COMPOSITIONS COMPRISING SAME FOR SKIN SOOTHING” (Pierre Fabre Dermo-Cosmétique, priority 2021, dated 2023)
